{"source": "patent US20220196635A1", "about": "“Fibrosis Assay” (Georgia Tech Research Corporation, priority 2020, published 2022)", "key": {"[1]": {"system": "normal human lung fibroblasts (NHLF)", "experiment": "Picrosirius red histology of contracted cell-ECM spheroids (mean fluorescence intensity)", "type": "cell-based", "conditions": "different TGF-β1 conditions and control, 12 days of culture", "description": "Contracted cell-ECM spheroids were harvested after 9-12 days of culture. These structures were prepared for histology, stained, and imaged as previously described for cultured spheroids. Briefly, the spheroids were washed with PBS and fixed in 4% paraformaldehyde (Alfa Aesar) for 1 hour at room temperature. The structures were stained with 0.5% methylene blue solution in PBS for 10 minutes at room temperature to aid in visualization during histology. Samples were placed in a cryomold containing optimal cutting temperature (OCT) compound, and flash frozen in cooled isopentane. 10 um sections were obtained using a CryoStar NX70 cryostat (Thermo Fisher Scientific).\nUpon warming to room temperature, the sections were washed with PBS, permeabilized with 0.2% Triton-X 100, and blocked for 1 hour at room temperature with 4% bovine serum albumin (BSA) (Millipore Sigma). Sections were stained for 30 min at room temperature with Sirius red (0.1% of Sirius red in saturated aqueous picric acid), as previously described for collagen bundle staining. The samples were then washed with PBS, stained with DAPI for 15 minutes at room temperature, and coverslipped. […] Fluorescence was detected using Texas Red channel settings as previously described. Mean fluorescence intensity was quantified in ImageJ as the average pixel intensity within the sections."}, "[2]": {"system": "NHLF cells and diseased IPF cells (primary human lung fibroblasts) in fibrin scaffold", "experiment": "Microscale cell-mediated fibrinolysis assay (ATPS-printed fibroblast-laden fibrin scaffolds, brightfield pixel intensity)", "type": "cell-based", "conditions": "NHLF cells", "description": "A stock solution of DEX (20% w/w dextran T500; Sigma) was prepared in phosphate buffered saline (PBS) on a rocker overnight. A stock solution of PEG (6% w/w, 35 k MW; Sigma) was prepared in fully supplemented culture media with 10% deionized water to balance osmolality. Both stock solutions were passed through a 0.22 um sterilizing syringe filter before storage. PEG working solutions were stored for up to 2 weeks at 4° C. Thrombin (Human Alpha Thrombin; Enzyme Research Labs) was also added to the PEG solution at a concentration of 0.1 U/mL immediately preceding experiments. Fibrinogen-DEX solutions were prepared by diluting fibrinogen stock solution (human fibrinogen 3; Enzyme Research Labs) to a final concentration of 4 mg/mL in a sterile solution of 4% 10×DMEM, 15% DEX stock solution (to a final concentration of 3% dextran), and 50% cell suspension in growth media. For all experiments excluding cell concentration evaluation, the cell suspension was diluted for 1000 cells per microliter in the final fibrinogen-DEX solution.\nNormal human lung fibroblasts (NHLF lot #0000580583; […] Cells were passaged at 80-90% confluence and were sub-cultured in 1:3 ratios by trypsinization. When at the desired confluence, cells were washed with PBS and 0.05% trypsin solution was added to the flask. Cells were incubated for 2 min, diluted with fibroblast growth media, and then harvested and centrifuged (200× g, 5 min) in a conical tube. The supernatant was aspirated and the cell pellet was re-suspended in serum-free culture media. When used in fibrin degradation experiments, cells were re-suspended at 2× the final desired concentration (1000 cells/ul unless otherwise indicated). All experiments were conducted with cells at or below passage 12. In all experiments, media was changed every 48 hours and any media additives (plasminogen, TGF-β1, drugs, etc.) were included.\nWorking solutions of PEG with 0.1 U/mL of thrombin were warmed to 37° C. and pipetted into a 96-well plate. For production of droplets, fibrinogen-DEX solutions with cell suspension were maintained at 37° C. and pipetted directly into the PEG-thrombin media using either a manual pipette or a semi-automated 96-channel pipette (Viaflo-96; Integra). All assays utilized a volume of 1 μl unless otherwise noted. Following dispensing of the DEX phase, the plates were placed in an incubator at 37° C. for 30 min to allow the thrombin to enzymatically crosslink the fibrinogen into a fibrin matrix (FIG. 1A). The PEG-enriched media was then washed four times by removing, then replacing half of the media with PEG-free media. When applicable, the final media addition was supplemented with stimuli as detailed in Example 5 below. For the duration of each experiment, assay plates were imaged every 2 hours at 4× with an automated cell culture monitoring system (Incucyte S3; Essen Biosystems). After one day of culture, plasminogen (50 μg/mL) (Human Glu-Plasminogen; Enzyme Research Labs) was added as a 10× concentrated solution to each well in order to initiate assay degradation (FIG. 1B), unless otherwise noted for specific conditions. Fresh plasminogen was included with each subsequent media addition. Positive controls with active plasmin (1 U/ml) (Human Plasmin; Enzyme Research Labs) and negative controls without plasminogen were included in each experiment. As cells activated plasminogen, the fibrin scaffold progressively degraded as illustrated in FIG. 1C.\nAfter each experiment, brightfield images for every time point were downloaded in jpeg format from the automated cell culture monitoring system. Python's OpenCV library was implemented for the masking approach illustrated in FIG. 2A. First, a threshold was set at 50% of the maximum intensity (128 for 8-bit integer pixel values) in order to isolate the darker pixels of semi-opaque fibrin hydrogel from the background of the image. A closing morphological filter with a 25×25 kernel was then applied to each mask in order to remove noise. […]"}}, "data": [{"substance": "TGF-β1: Human Recombinant TGF-β1 (Peprotech), pro-fibrotic, anti-fibrinolytic stimulus", "values": [{"measurement": "mean fluorescence intensity (MFI) of picrosirius red stained sections, collagen organization", "setting": "[1]", "result": "relative consistency in organization of collagen networks"}, {"measurement": "maximum slope of fibrin degradation", "setting": "[2]; higher concentrations of TGF-β1", "result": "no significant changes in slope"}, {"measurement": "50% degradation time / delay before fibrinolysis", "setting": "[2]; various concentrations of TGF-β1", "result": "longer time delays before fibrinolysis"}]}]}
